For 11 compounds, TGI and GI50 results are on record in PubChem BioAssay (NCI).

Test systems include HCT-15 colon; OVCAR-4 ovarian; SR leukemia; TK-10 renal; SF-268 CNS; OVCAR-3 ovarian; SW-620 colon; HCC-2998 colon; NCI-H23 lung; MCF7 breast.
What all share (assay): DTP human tumour cell line panel, 48 h

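How tested: cells in 96-well plates exposed to compound for 48 hours at five concentrations. GI50 = concentration required for 50% inhibition of growth. Definition used: TGI = concentration required for complete inhibition of growth.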

Turning to `COC(=O)[C@]1(C)CCCC2(C)C3=C(CCC21)CC1(CC3)SCCS1` (some centres undefined), the TGI in the test on HCT-15 colon, in the test with OVCAR-4 ovarian, in the test on SR leukemia, in the test on TK-10 renal, with SF-268 CNS and in the test with OVCAR-3 ovarian was more than 10 µM each time. Also, the TGI in the test on SW-620 colon, in the test with HCC-2998 colon, with NCI-H23 lung and in the test on MCF7 breast was more than 10 µM throughout.
Regarding `CN(C)CCS(=O)(=O)Nc1cc(-c2ccc3ncnc(Nc4ccc(F)c(Cl)c4)c3c2)cnc1Cl`, the GI50 is 1.11 µM in the test with HCT-15 colon; 1.29 µM with OVCAR-4 ovarian; 0.809 µM with SR leukemia; 0.188 µM in the test on TK-10 renal; 0.549 µM with SF-268 CNS; 0.22 µM in the test on OVCAR-3 ovarian. The GI50 with SW-620 colon is 1.2 µM; with HCC-2998 colon it was 1.05 µM; in the test on NCI-H23 lung, 0.577 µM; with MCF7 breast, 0.292 µM. The TGI in the test on HCT-15 colon is 4.36 µM; in the test with OVCAR-4 ovarian it was more than 100 µM; with TK-10 renal, 1.31 µM; with SF-268 CNS it was more than 100 µM; with OVCAR-3 ovarian, 1.2 µM; in the test with SW-620 colon, more than 38 µM. Also, the TGI in the test on HCC-2998 colon was 3.04 µM; in the test with NCI-H23 lung, more than 100 µM; in the test with MCF7 breast, more than 100 µM.
On to `COC(=O)c1ccc2c(c1)C(=O)c1c-2n(CCCCl)c(=O)c2cc(OC)c(OC)cc12`, for which the GI50 with HCT-15 colon was more than 100 µM; in the test with OVCAR-4 ovarian it was more than 100 µM; with SR leukemia, 0.061 µM; in the test with TK-10 renal, more than 100 µM; in the test on SF-268 CNS, more than 100 µM; in the test with OVCAR-3 ovarian, more than 100 µM. The GI50 with SW-620 colon, in the test with HCC-2998 colon, in the test with NCI-H23 lung and in the test with MCF7 breast was more than 100 µM in each case. In addition, the TGI in the test with HCT-15 colon, with OVCAR-4 ovarian, with SR leukemia, with TK-10 renal, in the test on SF-268 CNS and in the test on OVCAR-3 ovarian was more than 100 µM in each case. The TGI in the test on SW-620 colon, with HCC-2998 colon, in the test on NCI-H23 lung and in the test on MCF7 breast was more than 100 µM each time.
As to `CCOC(=O)c1cc2cc(OCc3ccccc3)ccc2[nH]1`, the GI50 with HCT-15 colon, in the test with OVCAR-4 ovarian, in the test with SR leukemia, in the test with TK-10 renal, in the test with SF-268 CNS and in the test on OVCAR-3 ovarian was more than 100 µM throughout. Further, the GI50 with SW-620 colon, in the test on HCC-2998 colon, with NCI-H23 lung and in the test with MCF7 breast was more than 100 µM throughout. Further, the TGI in the test with HCT-15 colon, in the test on OVCAR-4 ovarian, in the test with SR leukemia, in the test with TK-10 renal, in the test on SF-268 CNS and in the test with OVCAR-3 ovarian was more than 100 µM throughout. The TGI in the test on SW-620 colon, in the test with HCC-2998 colon, in the test with NCI-H23 lung and with MCF7 breast was more than 100 µM in each case.
With `Cc1ccc(C(=O)N2C/C(=C/c3ccccc3)C(=O)/C(=C/c3ccccc3)C2)cc1`, the GI50 in the test with HCT-15 colon is 3.13 µM; in the test with OVCAR-4 ovarian it was 16.5 µM; in the test on SR leukemia, 0.461 µM; in the test on TK-10 renal, 20.8 µM; in the test on SF-268 CNS, 10.8 µM; with OVCAR-3 ovarian it was 6.8 µM. In addition, the GI50 in the test on SW-620 colon was 2.94 µM; in the test with HCC-2998 colon, 3.08 µM; in the test on NCI-H23 lung it was 8.86 µM; in the test with MCF7 breast it was 0.387 µM. Besides, the TGI in the test on HCT-15 colon was more than 100 µM; in the test on OVCAR-4 ovarian it was more than 100 µM; with SR leukemia it was 9.09 µM; in the test on TK-10 renal, 90 µM; in the test on SF-268 CNS, more than 100 µM; in the test on OVCAR-3 ovarian, more than 100 µM. For the same compound, the TGI was more than 59.3 µM in the test on SW-620 colon, 8.67 µM in the test with HCC-2998 colon, more than 100 µM in the test with NCI-H23 lung and more than 41.9 µM in the test with MCF7 breast.
For the compound `COc1cc(OC)c(/C=C/C(=O)c2c(N)cc(OC)cc2OC)c(OC)c1`, the GI50 in the test on HCT-15 colon is 0.369 µM; with OVCAR-4 ovarian it was 13.6 µM; with SR leukemia, 0.242 µM; in the test with TK-10 renal it was 6.64 µM; with SF-268 CNS it was 0.609 µM; in the test on OVCAR-3 ovarian it was 0.28 µM. Also, the GI50 with SW-620 colon is 0.326 µM; in the test on HCC-2998 colon, 1.25 µM; with NCI-H23 lung, 0.826 µM; with MCF7 breast, 0.395 µM. Also, the TGI was more than 100 µM in the test on HCT-15 colon; more than 100 µM in the test on OVCAR-4 ovarian; more than 100 µM in the test with SR leukemia; more than 100 µM in the test with TK-10 renal; more than 100 µM in the test with SF-268 CNS; 1.1 µM with OVCAR-3 ovarian. Further, the TGI in the test with SW-620 colon was more than 100 µM; with HCC-2998 colon, more than 54.1 µM; with NCI-H23 lung, more than 100 µM; with MCF7 breast it was more than 100 µM.
For `C=CC[PH+](c1ccccc1)c1ccccc1.C=CC[PH+](c1ccccc1)c1ccccc1.[Pt+2].[S-]c1ncccn1.[S-]c1ncccn1`, the GI50 with HCT-15 colon was 2.94 µM; in the test on OVCAR-4 ovarian it was 5.35 µM; in the test on SR leukemia, 3.11 µM; in the test with TK-10 renal, 5.8 µM; in the test on SF-268 CNS, 25.9 µM; in the test on OVCAR-3 ovarian, 2.88 µM. Further, the GI50 in the test with SW-620 colon was 4.75 µM; in the test on HCC-2998 colon, 19.1 µM; in the test with NCI-H23 lung, 17.9 µM; in the test on MCF7 breast, 4.8 µM. In addition, the TGI with HCT-15 colon was 10.4 µM; in the test on OVCAR-4 ovarian it was more than 100 µM; in the test on SR leukemia, 60.7 µM; with TK-10 renal, 46.2 µM; in the test on SF-268 CNS it was more than 100 µM; in the test with OVCAR-3 ovarian, 9.49 µM. Besides, the TGI in the test with SW-620 colon is 29.7 µM; in the test on HCC-2998 colon, 41.5 µM; in the test on NCI-H23 lung it was 59 µM; with MCF7 breast, more than 100 µM.
As to `CCC1=C(c2ccc(OC)cc2)CC[C@]2(CCNC2=O)[C@@H]1C`, the TGI was more than 88.8 µM in the test with HCT-15 colon; 69.5 µM in the test with OVCAR-4 ovarian; 76.6 µM in the test with SR leukemia; more than 100 µM with TK-10 renal; more than 100 µM in the test on SF-268 CNS; 61.4 µM in the test on OVCAR-3 ovarian. In addition, the TGI in the test with SW-620 colon is more than 100 µM; in the test with HCC-2998 colon, more than 65.3 µM; in the test with NCI-H23 lung, more than 100 µM; with MCF7 breast, 46.7 µM.
For the compound `O=C(/C=C/c1cccc(Oc2ccc(Cl)cc2)c1)c1ccccc1`, the GI50 with HCT-15 colon is 18.7 µM; with OVCAR-4 ovarian it was 75 µM; in the test with SR leukemia, 22.9 µM; in the test on TK-10 renal it was 192 µM; in the test with SF-268 CNS, 75.5 µM; in the test on OVCAR-3 ovarian, 21.1 µM. Also, the GI50 is 22.6 µM in the test with SW-620 colon, 117 µM with HCC-2998 colon, 80.7 µM in the test with NCI-H23 lung and 26.9 µM in the test on MCF7 breast. In addition, the TGI was found to be 44.6 µM in the test with HCT-15 colon; 234 µM in the test with OVCAR-4 ovarian; 78.7 µM in the test on SR leukemia; 342 µM with TK-10 renal; 209 µM with SF-268 CNS; 42.8 µM in the test with OVCAR-3 ovarian. Further, the TGI with SW-620 colon is 49.4 µM; in the test with HCC-2998 colon it was 255 µM; in the test with NCI-H23 lung it was 266 µM; in the test on MCF7 breast it was 118 µM.
For the compound `CCN(CC)Cc1cc(Nc2cc(C(F)(F)F)c(C#N)c3nc4ccccc4n23)ccc1O`, the GI50 was 0.78 µM with HCT-15 colon; 1 µM in the test with OVCAR-4 ovarian; 3.72 µM in the test on SR leukemia; 1.47 µM in the test with TK-10 renal; 2.51 µM in the test with SF-268 CNS; 1.83 µM with OVCAR-3 ovarian. Further, the GI50 in the test on SW-620 colon was 2.61 µM; with HCC-2998 colon, 2.85 µM; in the test on NCI-H23 lung it was 1.21 µM; with MCF7 breast, 1.75 µM. Moreover, the TGI was 2.76 µM in the test with HCT-15 colon; 2.59 µM with OVCAR-4 ovarian; more than 100 µM in the test on SR leukemia; 9.43 µM in the test on TK-10 renal; 18.3 µM in the test with SF-268 CNS; 10.4 µM with OVCAR-3 ovarian. Also, the TGI was 10.2 µM with SW-620 colon, 15.2 µM in the test with HCC-2998 colon, 8.29 µM with NCI-H23 lung and 10.7 µM in the test with MCF7 breast.
On to `COC(=O)C1=Nc2ccc(F)cc2/C1=C/c1sc(=S)[nH]c1O`, for which the GI50 with HCT-15 colon was 0.0663 µM; with OVCAR-4 ovarian it was 0.692 µM; in the test with SR leukemia, 0.0476 µM; in the test with TK-10 renal, 0.848 µM; in the test with SF-268 CNS, 0.575 µM; in the test on OVCAR-3 ovarian it was 0.0441 µM. For the same compound, the GI50 is 0.0499 µM in the test with SW-620 colon, 0.41 µM in the test on HCC-2998 colon, 0.408 µM with NCI-H23 lung and 0.26 µM with MCF7 breast. The TGI in the test on HCT-15 colon was more than 100 µM; in the test on OVCAR-4 ovarian, 23.8 µM; with SR leukemia, more than 100 µM; in the test on TK-10 renal, 19.3 µM; in the test on SF-268 CNS, 29.9 µM; in the test on OVCAR-3 ovarian it was 3.66 µM. The TGI was more than 100 µM in the test with SW-620 colon, 12.1 µM in the test on HCC-2998 colon, more than 100 µM in the test on NCI-H23 lung and 15 µM in the test with MCF7 breast.
